From patent US20250084074A1, “SUBSTITUTED HETEROCYCLES AS HSET INHIBITORS” (MERCK PATENT GMBH, priority 2022, published 2025)

What follows are molecules tested against HSET full length protein (Homo sapiens (Human), UniProt Q9BW19) (assay: HSET ADP-Glo Assay S - 3 μM ATP). Settings: 5 nM HSET, 70 μg/mL microtubule, 80 min at rt, read-out: COMBINED HSET ADP GLO IC50.
Type: biochemical
In short: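 Full-length human HSET (5 nM) with paclitaxel-stabilised bovine brain microtubules (70 μg/mL) in HEPES pH 6.8 buffer was preincubated 10 min with compound. ATP at 3 μM started the reaction, which ran 80 min at rt. ADP formed was measured by ADP-Glo luminescence.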

Chain of HSET full length protein (Q9BW19 whole entry): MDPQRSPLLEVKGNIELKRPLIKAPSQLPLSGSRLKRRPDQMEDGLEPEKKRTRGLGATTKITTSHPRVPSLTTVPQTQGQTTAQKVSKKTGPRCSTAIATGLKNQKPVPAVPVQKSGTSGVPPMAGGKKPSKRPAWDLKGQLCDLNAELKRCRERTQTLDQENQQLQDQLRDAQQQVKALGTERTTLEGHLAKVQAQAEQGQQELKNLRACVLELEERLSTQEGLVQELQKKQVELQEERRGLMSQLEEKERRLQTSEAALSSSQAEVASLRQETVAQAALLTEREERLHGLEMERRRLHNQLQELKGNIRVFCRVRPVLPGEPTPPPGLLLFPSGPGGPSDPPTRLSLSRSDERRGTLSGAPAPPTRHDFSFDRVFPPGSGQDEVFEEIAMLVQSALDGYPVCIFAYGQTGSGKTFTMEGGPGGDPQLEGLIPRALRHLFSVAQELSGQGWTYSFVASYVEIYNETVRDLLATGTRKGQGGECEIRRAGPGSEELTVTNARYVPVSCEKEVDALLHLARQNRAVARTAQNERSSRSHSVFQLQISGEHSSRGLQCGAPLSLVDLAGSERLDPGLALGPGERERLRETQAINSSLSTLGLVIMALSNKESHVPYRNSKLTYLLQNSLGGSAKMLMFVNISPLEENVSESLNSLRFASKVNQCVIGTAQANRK

Compound	IC50
Cc1nc(-c2ccc3ccnc(N[C@H]4C[C@@](O)(C(=O)Nc5nc(C)c(C(C)(C)C)s5)C4)c3c2)no1 [Example 221, (1 r,3r)-N-(5-(tert-butyl)-4-methylthiazol-2-yl)-1-hydroxy-3-((7-(5-methyl-1,2,4-oxadiazol-3-yl)isoquinolin-1-yl)amino)cyclobutane-1-carboxamide]	133 nM
Cc1nc(-c2ccc3ccnc(N[C@H]4C[C@@](F)(C(=O)Nc5nc(C)c(C(=O)OC(C)(C)C)s5)C4)c3c2)no1 [Example 222, tert-butyl 2-((1 r,3r)-1-fluoro-3-((7-(5-methyl-1,2,4-oxadiazol-3-yl)isoquinolin-1-yl)amino)cyclobutane-1-carboxamido)-4-methylthiazole-5-carboxylate]	10 nM
Cc1nc(-c2ccc3ccnc(N[C@H]4C[C@](F)(C(=O)Nc5nc(C)c(C(=O)OC(C)(C)C)s5)C4)c3c2)no1 [Example 223, tert-Butyl 2-((1s,3s)-1-fluoro-3-((7-(5-methyl-1,2,4-oxadiazol-3-yl)isoquinolin-1-yl)amino)cyclobutane-1-carboxamido)-4-methylthiazole-5-carboxylate]	219 nM
Cc1nc(-c2ccc3ccnc(N[C@H]4C[C@@](C)(C(=O)Nc5nc(C)c(C(=O)OC(C)(C)C)s5)C4)c3c2)no1 [Example 224, tert-Butyl 4-methyl-2-((1s,3s)-1-methyl-3-((7-(5-methyl-1,2,4-oxadiazol-3-yl)isoquinolin-1-yl)amino)cyclobutane-1-carboxamido)thiazole-5-carboxylate]	270 nM
Cc1nc(-c2ccc3ccnc(N[C@@H]4CCN(C(=O)Nc5nc(C)c(C(=O)OC(C)(C)C)s5)C4)c3c2)no1 [Example 225, tert-Butyl 4-methyl-2-[[(3R)-3-[[7-(5-methyl-1,2,4-oxadiazol-3-yl)-1-isoquinolyl]amino]pyrrolidine-1-carbonyl]amino]thiazole-5-carboxylate]	1660 nM
Cc1nc(-c2ccc3ccnc(N[C@H]4CCN(C(=O)Nc5nc(C)c(C(=O)OC(C)(C)C)s5)C4)c3c2)no1 [Example 226, tert-Butyl 4-methyl-2-[[(3S)-3-[[7-(5-methyl-1,2,4-oxadiazol-3-yl)-1-isoquinolyl]amino]pyrrolidine-1-carbonyl]amino]thiazole-5-carboxylate]	12 nM
Cc1nc(-c2ccc3ccnc(N[C@H]4CCN(C(=O)N(C)c5nc(C)c(C(=O)OC(C)(C)C)s5)C4)c3c2)no1 [Example 227, tert-Butyl 4-methyl-2-[methyl-[(3S)-3-[[7-(5-methyl-1,2,4-oxadiazol-3-yl)-1-isoquinolyl]amino]pyrrolidine-1-carbonyl]amino]thiazole-5-carboxylate]	88 nM
Cc1nc(-c2cccc(C(=O)NC3CN(C(=O)Nc4nc(C)c(C(=O)OC(C)(C)C)s4)C3)c2)no1 [Example 228, tert-Butyl 4-methyl-2-[[3-[[3-(5-methyl-1,2,4-oxadiazol-3-yl)benzoyl]amino]azetidine-1-carbonyl]amino]thiazole-5-carboxylate]	86 nM
Cc1nc(-c2cccc(C(=O)NC3CN(C(=O)N(C)c4nc(C)c(C(=O)OC(C)(C)C)s4)C3)c2)no1 [Example 229, tert-Butyl 4-methyl-2-[methyl-[3-[[3-(5-methyl-1,2,4-oxadiazol-3-yl)benzoyl]amino]azetidine-1-carbonyl]amino]thiazole-5-carboxylate]	52 nM
Cc1nc(-c2ccc3ccnc(NC4CN(C(=O)Nc5nc(C)c(C(=O)OC(C)(C)C)s5)C4)c3c2)no1 [Example 230, tert-Butyl 4-methyl-2-[[3-[[7-(5-methyl-1,2,4-oxadiazol-3-yl)-1-isoquinolyl]amino]azetidine-1-carbonyl]amino]thiazole-5-carboxylate]	2 nM
Cc1nc(-c2ccc3ccnc(NC4CN(C(=O)N(C)c5nc(C)c(C(=O)OC(C)(C)C)s5)C4)c3c2)no1 [Example 231, tert-Butyl 4-methyl-2-[methyl-[3-[[7-(5-methyl-1,2,4-oxadiazol-3-yl)-1-isoquinolyl]amino]azetidine-1-carbonyl]amino]thiazole-5-carboxylate]	5 nM
